# From US20230277449A1, “ORAL CAVITY POLYMERIC DELIVERY SYSTEMS” (YISSUM RESEARCH DEVELOPMENT COMPANY OF THE HEBREW …, priority 2020, published 2023)
# Read-outs that look alike come from different tables or passages of the source.
# Key:
# [1] = Monitored vital parameters after IV APO in pigs; format: in vivo, pig; conditions: 1 mg/kg IV APO, mean (lowest - highest)
# Description: Pigs were fasted overnight before the experiments. […] Pigs were positioned on their back.
# [2] = in vivo; conditions: pig
# Description: 2.1.1 HPMC-based core ABPD preparation: All polymers were sieved through a 50-mesh sieve prior to their use.
# The dispersion was slowly cooled with constant vigorous stirring to room temperature to obtain a solid. This solid was introduced into 8 mm flat-faced punch and die set. […] The diameter of the core was changed to 10.5 mm due to compression.
# DDW and vigorously stirred until full dissolution to homogenous solution. The pH of the solution was adjusted to 5.9 by H3PO4 and KOH. The solution was cooled at room temperature for 10 min with continuous stirring.
# 2.1.8 In-vivo protocol of buccal administration: Following full recovery of 1 week, these (and additional) pigs underwent experiments with administration of buccal devices. The preparation of pigs for the experiments were done as previously described. Pigs were positioned on their left side. Inner side of the left cheek was gently cleaned with a gauze. […] The liquefied core was carefully collected and stored at -80° C. […] Cheeks were excised. […] The other half was fixated in 4% formaldehyde and stored for at least a month. Afterwards, these samples were trimmed, embedded in paraffin and sectioned. They were stained with Hematoxilyn and Eosin and underwent a histopathological examination. As a first step, each of the first 3 pigs received a different ABPD (as previously described): hydroxypropyl methylcellulose (HPMC) - based core, witepsol H15 - based core, or hydrogel - based core. After results evaluation, 3 additional pigs received hydrogel -based core ABPDs. Lastly, 1 pig received a hydrogel-based core ABPD with modified parameters.
# The tubes were vigorously shaken for approximately 20 h. […] The supernatant was transferred to a clean tube, to which 0.3 ml of 1M NaOH and 0.7 ml 0.2 M Na2HPO4 were added. The tubes were vortex-mixed for 2 min. The pH was adjusted to 7 - 9 by NaOH and HCl. […] The supernatant was transferred to a clean tube and evaporated to dryness under vacuum. 3 ml of 0.1 M HCl were added to the tissue once again and vigorously shaken for 20 min. Afterwards, the tissue underwent the same procedure one more time with supernatant collected to respective tubes as previously. […] Samples were 2000-fold diluted in the reconstitution diluent and injected into LC-MS-MS system.
# Following this analysis PK parameters were obtained.
# [3] = Simulation of the results in pig to human setup; conditions: same ABPD conditions, CL difference, Eq. 2
# [4] = Ex-vivo permeability of APO, MTP and ATN in Ussing diffusion chamber; format: in vitro ADME, pig
# Description: Each chamber includes a heating block for temperature control and needle valves for adjustment of carbogen gas flow for oxygenation and gas lift stirring. Buccal tissues of female pigs, ~100 kg, were used in the experiments. Pigs were exposed to anesthetic agents, antibiotics, contrast agents and sacrificed by over exposure to KC1. […] Immediately following euthanasia, buccal tissue was removed and placed in ice-cold modified Ringer’s buffer (pH 7.4). Buccal mucosa segments were trimmed to 800-1000 µm by surgical scissors and tweezers and mounted into Ussing diffusion chambers. The exposed tissue surface area was 0.5 cm^2 and buffered solutions volume in each cell was 3 ml. The system was preheated to 35° C. Modified Ringer buffer was added to the receiver compartment and simulated saliva buffer to the donor side. The tissue oxygenation and the solution mixing were performed by bubbling with carbogen gas. The system was equilibrated for 30 min followed by replacing the solutions and adding 20 µl of the test solutions to the donor side of the chamber to commence the experiment.
# Solutions were freshly prepared on the days of the experiments. […] When testing the effect of organic solvents, 100 µl of the simulated saliva in the donor chamber were replaced by 100 µl of 1:1EtOH:PG solution. When testing the effect of NLF 70 µl of the simulated saliva in the donor chamber were replaced by 70 µl of NLF. […] The constituents are melted at 37° C. and mixed until a clear yellow homogenous solution is obtained.
# 3.1.3 Experimental protocol: 100 µl samples were taken from receiver compartment at the beginning of the experiments, at half an hour and every hour until the end of the experiments. 100 µl of fresh Ringer’s buffer solution were added each time to receiver compartment. The dilution of the concentration of tested substances in the receiver compartment was accounted for. […] All samples were stored at -20° C. pending analysis.
# The analysis conditions were as follows: XTerra MS (Waters Inc.) C18 Column (3.5 µm, 2.1 mm × 100 mm), temperature 45° C., flow rate 0.2 ml/min and mobile phase with a linear gradient as detailed in Table 23.
# Statistical significance was stated for p<0.05. […] Papp calculation and simulations of steady state plasma levels for in-vivo testing
# Apparent permeability (Papp) is calculated by Eq. 5: […]
# [5] = Simulation to human plasma levels from ex-vivo Papp
# [6] = Intravenous administration of APO to rats; format: in vivo; conditions: male, Wistar, rat, plasma, 2.0 mg/kg IV
# [7] = Simulation of rat plasma levels after buccal administration; conditions: rat 330 gr, Co = 19 mg/ml, A = 0.2 cm^2, Papp = 0.51*10^-6 cm/sec
# [8] = Physicochemical properties stated in the text (log P, pKa, solubility); conditions: gelatin hydrogel, aqueous with cosolvent or surfactant or cyclodextrin, read-out: solubility in buffered hydrogel
# [9] = cited from earlier work
# [10] = cited from earlier work; remark: listed apart in the source
# [11] = IV administration of APO to pigs, pharmacokinetics; conditions: female, pig, plasma, 1 mg/kg
# [12] = In-vivo permeability study on rats (buccal administration)
compound,measurement,setting,value
"CN1CCc2cccc3c2[C@H]1Cc1ccc(O)c(O)c1-3 [APO, apomorphine]",Diastolic blood press (mmHg),[1],43.1 (32 - 55) mmHg
same,Heart rate (beats/min),[1],95.2 (74 - 120) beats/min
same,O2 saturation (%),[1],97.7 (95 - 100) %
same,Respiration rate kept at (min^-1),[1],12.2 (11- 13) min^-1
same,Systolic blood press (mmHg),[1],81.7 (72 - 101) mmHg
same,Rectal temp (°C),[1]; four pigs,38.2 (37.4 - 39.4) °C
same,Cmax after removal smaller than with the four pigs,[2],2 fold
same,Cmax of the peak higher than Css,[2],4 fold
same,time of Cmax,[2],8.7 h
same,time of the peak after ABPD removal,[2],about 45 min
same,Css experimentally obtained,[2]; 1.37 mg/kg,2.15 (±0.44) ng/ml
same,theoretical Css predicted,[2]; 1.37 mg/kg,2.24 ng/mL
same,AUC,[2]; 2 mg/kg,0.0328 µg·h/mL
same,AUC(0-inf),[2]; 2 mg/kg,0.0507 µg·h/mL
same,Cmax,[2]; 2 mg/kg,9.7 ng/mL
same,Css simulated for 70 kg human,[3],4 to 6 ng/mL
same,Papp lower at pH 5.9 than at pH 7.4,[4],6 fold
same,Papp at […],"[4]; female, pig, pH 7.4, read-out: Apparent permeability (Papp)",31.3 nm/s
same,Papp,"[4]; female, pig, pH 7.4 with 3.33% v/v of 1:1 ethanol: propylene glycol solution, read-out: Apparent permeability (Papp)",116 nm/s
same,Papp at 0.1 mM,"[4]; female, pig, simulated saliva pH 5.9, mean (±SD), n=3, read-out: Apparent permeability (Papp)",5.1 nm/s
same,Papp at 0.1 mM,"[4]; female, pig, simulated saliva pH 7.4, standard 0.1 mM, mean (±SD), n=3, read-out: Apparent permeability (Papp)",30 nm/s
same,Apparent permeability (Papp),[4]; pH 7.4 with 3.33% v/v of 1:1 ethanol: propylene glycol solution,11.63 10^-6 cm/sec
same,lag-time,[4]; pH 7.4 without 10% v/v NLF,~ 1 hour
same,Apparent permeability (Papp),"[4]; simulated saliva pH 7.4, standard 0.1 mM, mean (±SD), n=3",3.00 (0.26) 10^-6 cm/sec
same,Jss calculated (mg/(cm^2*h)),"[5]; 1:1 ethanol: propylene glycol, 20 mg/ml",0.84 mg/(cm^2*h)
same,Jss calculated (mg/(cm^2*h)),"[5]; pH 5.9, 20 mg/ml",0.04 mg/(cm^2*h)
same,Jss calculated (mg/(cm^2*h)),"[5]; pH 7.4, 20 mg/ml",0.22 mg/(cm^2*h)
same,clearance,[6],9.2 L/h/kg
same,Vd,[6]; read-out: volume of distribution,3.3 L/kg
same,calculated Css,[7],2.3 ng/mL
same,solubility,[8],40 mg/mL
same,CL,"[9]; human, literature",3 to 5 L/h/kg
same,Vd,"[9]; human, literature",1 to 2 L/kg
same,excreted unchanged to urine,[9]; humans,up to 4%
same,log P,[10],2.0
same,AUC(0-inf),[11],0.107 µg·h/mL
same,Vd,[11],6.6 L/kg
same,clearance,[11],13.1 L/h/kg
same,APO in the plasma,"[12]; buccal solution, three anesthetized rats, 8 h",not detected
same,APO concentration in the solution inside the delivery device at 8 h vs initial,[12]; rats,did not change
